This note sets out measurements from US20210283099A1, “CDC7 KINASE INHIBITORS AND USES THEREOF” (SLOAN-KETTERING INSTITUTE FOR CANCER RESEARCH, priority 2010, published 2021).

Broadly, the solubility is how much of the substance goes into solution per volume.

Converted amounts (≈) assume the structure as drawn.

Data set [1] is described as follows: Liver microsome stability test. It counts as in vitro ADME. As to the method:
The stability of granaticin A was determined in mouse and human liver microsomes.

The next data set has as its system Ph-ALL3.1 cells. The data set can be described thus: Release of elutriated G1 phase cells, 3H-thymidine incorporation and FACS. Type of data set: cell-based, human. Set-up: dose or concentration left out as unconfirmed. Conditions: G1 phase fraction released into granaticin A. On the procedure:
FIG. 2. Elutriation profile of PhALL3.1: Centrifugal elutriation was used to synchronize the recently established Philadelphia chromosome positive acute lymphoblastic leukemia cell line (PhALL3.1). An asynchronous culture (4 liters) was pelleted, resuspended in a small volume (20 ml), and loaded into the elutriation rotor as outlined by the manufacturer (Beckman). After equilibration and washing, cell samples were eluted from the rotor based on size with the smaller cells exiting the rotor first. Ten fractions (250 ml) were taken across the gradient and standard FACS analysis performed on 10 ml of each fraction looking at DNA content. G1, S, and G2 phase cell populations are indicated in the asynchronous profile. This method allows for isolation of phase specific cell populations.
FIG. 3. […] Ph-ALL3.1 cells were subjected to standard centrifugal elutriation conditions and the G1 phase fraction, as determined by FACS analysis (Time Zero), was released into granaticin A ([…]) or vehicle control (DMSO) for the indicated times. Cell samples post-release into granaticin A or vehicle control (DMSO) were pulsed for 2 hours with ^3H-thymidine and samples were collected, washed, and acid precipitable counts were measured by scintillation counting. X-axis is time post-release into compound or control (in hours) and y-axis is counts per minute (CPM). […]
In general terms: Incorporation of labelled thymidine or its analogues reports DNA synthesis.

In the next data set the target is human recombinant Cdc7 (Homo sapiens, UniProt O00311). The data set is described as follows: In vitro kinase reaction, Mcm2 phosphorylation by Cdc7. It counts as biochemical. The settings on record: radioactive ATP, SDS-PAGE, autoradiography. On the procedure: FIG. 8. Mcm2 phosphorylation by Cdc7: Phosphorylated forms of Mcm2 migrate […] in SDS-PAGE gels. Using highly purified human recombinant Cdc7 and Mcm2, standard in vitro kinase reactions were performed in the presence of radioactive ATP and products were separated on SDS-PAGE gels, stained with silver, and autoradiography was performed to detect phosphorylated forms of Mcm2.
human recombinant Cdc7, sequence (O00311 whole entry): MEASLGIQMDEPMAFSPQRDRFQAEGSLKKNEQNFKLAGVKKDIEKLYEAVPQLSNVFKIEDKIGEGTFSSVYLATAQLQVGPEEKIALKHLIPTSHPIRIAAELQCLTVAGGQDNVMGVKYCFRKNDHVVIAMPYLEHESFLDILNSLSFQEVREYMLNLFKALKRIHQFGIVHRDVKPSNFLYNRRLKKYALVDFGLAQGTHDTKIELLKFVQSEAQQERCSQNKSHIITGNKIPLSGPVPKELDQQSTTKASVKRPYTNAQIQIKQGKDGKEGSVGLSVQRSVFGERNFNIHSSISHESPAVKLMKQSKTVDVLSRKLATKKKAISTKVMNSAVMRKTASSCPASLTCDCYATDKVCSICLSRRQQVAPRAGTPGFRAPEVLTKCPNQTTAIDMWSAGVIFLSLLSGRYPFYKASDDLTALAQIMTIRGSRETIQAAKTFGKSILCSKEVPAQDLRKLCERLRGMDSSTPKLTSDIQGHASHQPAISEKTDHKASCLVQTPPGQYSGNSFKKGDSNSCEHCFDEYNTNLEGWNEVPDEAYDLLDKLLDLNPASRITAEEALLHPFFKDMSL
human recombinant Cdc7, sequence (Q9UBU7 whole entry partner): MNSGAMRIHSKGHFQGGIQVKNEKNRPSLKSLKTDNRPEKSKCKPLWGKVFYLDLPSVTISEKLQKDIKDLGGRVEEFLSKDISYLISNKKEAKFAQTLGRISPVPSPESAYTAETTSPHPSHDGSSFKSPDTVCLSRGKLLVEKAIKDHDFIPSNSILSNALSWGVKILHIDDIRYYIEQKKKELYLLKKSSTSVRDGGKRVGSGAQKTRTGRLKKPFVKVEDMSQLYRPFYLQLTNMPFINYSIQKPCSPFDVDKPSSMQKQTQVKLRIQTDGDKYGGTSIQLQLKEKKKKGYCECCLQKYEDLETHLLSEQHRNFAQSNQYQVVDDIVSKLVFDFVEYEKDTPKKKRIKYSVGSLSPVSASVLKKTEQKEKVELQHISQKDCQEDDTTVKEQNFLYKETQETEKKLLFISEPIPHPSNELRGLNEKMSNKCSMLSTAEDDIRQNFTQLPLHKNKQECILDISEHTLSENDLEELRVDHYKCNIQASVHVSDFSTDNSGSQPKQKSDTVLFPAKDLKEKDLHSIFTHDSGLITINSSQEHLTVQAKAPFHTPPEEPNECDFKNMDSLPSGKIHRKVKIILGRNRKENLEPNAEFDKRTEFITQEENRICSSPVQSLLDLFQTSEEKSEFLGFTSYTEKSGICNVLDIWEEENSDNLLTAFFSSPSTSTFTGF

Another data set deals with Mcm2 phosphorylation. The data set can be described thus: Western blotting of Mcm2 after S phase release. Type of data set: cell-based, human. The settings on record: PhALL3.1 cells, as early as 2 hours post release. The source says:
FIG. 7. Granaticin A Inhibits Mcm2 phosphorylation: Following synchronization in S phase and release, PhALL3.1 cells from the experiments of FIG. 5 and FIG. 6 were collected at the indicated times post release into either control (DMSO) or granaticin A and extracts were subjected to Western blotting to detect total Mcm2 protein.

A further data set has as its system HeLa cells. The data set is described as follows: S phase checkpoint western blot analysis. Type of data set: cell-based, human. On the procedure:
FIG. 15. […] HeLa cells were incubated in the presence of granaticin A or carrier control (DMSO) for the indicated times and whole cell extracts were subjected to SDS-PAGE and western blot analysis. Asyn=asynchronously growing HeLa cells. HU=HeLa cells exposed to hydroxyurea for the indicated time. HU was used as a control for DNA damaging agent that is known to […] the DNA damage checkpoint response. Again, we observed that Mcm2 mobility is shifted in the cells treated with granaticin A. MCM2 mobility is not affected by HU. Activation of the DNA damage/replication checkpoint correlates with ATM/ATR dependent phosphorylation of Chk1 at Ser345.
On the technique in general: Immunoblotting shows a protein as a band on a membrane.

Data set [2] relates to primary patient leukemia samples. The data set can be described thus: Inhibition of cellular proliferation, all primary patient leukemia samples. Type of data set: cell-based, human. As to the method: FIGS. 16A-16B. Granaticin A and Granaticin B inhibit multiple tumor types: The indicated cell lines and primary patient samples were tested against the compounds listed in standard cytotoxicity assays (12 point dose response using Alamar blue reduction as an indicator of cell viability). Assays were done in triplicate and IC50 determinations were run in 12-point serial dilutions from […] to 5 nM. […] These include ras and EGFR gatekeeper mutation containing cell lines in addition to p53 mutant cell lines and other known chemotherapy resistant cell lines. Specifically, this included multi-drug resistance phenotype (MDR-overexpressing) cell lines from multiple hematologic and solid tumor cell lines. Table 1 highlights a series of primary patient leukemia samples-both acute and chronic and treatment naïve and refractory tested against granaticins A and B and Derivatives 1 and 2 (see Examples).
Table 1 highlights a series of primary patient leukemia samples-both acute and chronic and treatment naïve and refractory and the effect of granaticin A, granaticin B, derivative 1, and derivative 2 to inhibit cellular proliferation. […]

A further data set has as its system A459 cells. The data set can be described thus: Nude mouse xenograft, non small-cell lung cancer. It counts as in vivo. The settings on record: 2.5 mg/kg/day continuous, osmotic diffusion pumps; sections at day 28. As to the method: (§1) FIG. 22A-22C. Granaticin B is Effective Against Multiple Solid Tumors: granaticin B is efficacious against mouse models of melanoma (FIG. 22A), non-small cell lung cancer (FIG. 22B), and ovarian cancer (FIG. 22C). For the ovarian cancer experiments, SCID-Beige mice were injected with 5 million OVCAR3 cells that had been transduced with a GFP-firefly luciferase expressing plasmid (Frattini, M. G. and Brentjens, R. J., unpublished data). These cells were then injected intraperitoneally into 4 cohorts of mice on Day 1. From days 7-14 the mice were injected daily with the indicated concentrations of granaticin B in the intraperitoneal space. […] Nude mice were treated with 2.5 mg/kg/day granaticin B in a continuous fashion using osmotic diffusion pumps. Sections of the treated xenografts are shown after euthanasia at day 28 and H&E staining.

Data set [3] can be described thus: Standard solubility studies. Type of data set: physicochemical. On the procedure:
Standard solubility studies were conducted with granaticin B. In aqueous solution, 4.0 mg/ml of granaticin B is soluble. In alcohol, >188 mg/ml of granaticin B is soluble. In methanol, >252 mg/ml of granaticin B is soluble.

The next data set deals with OVCAR3 cells. The data set is described as follows: OVCAR3 intraperitoneal ovarian cancer model in SCID-Beige mice. Conditions: 3 mg/kg intraperitoneally daily days 7-14; imaging on day 42. It counts as in vivo, mouse. On the procedure: as §1

Turning to `CC1OC2CC(O)C1(O)c1c(O)c3c(c(O)c12)C(=O)C1=C(C3=O)[C@H](C)O[C@H]2CC(=O)O[C@@H]12` (stereo partly drawn) [Granaticin A, granaticin A], in data set [1] (human liver microsomes), the recovery at 30 min came out at 23.9% and the recovery at 60 min is 12%. In [1] (mouse liver microsomes), the recovery at 30 min was found to be 3.68% and the recovery at 60 min turned out to be 3.84%. Besides, in the data set on Ph-ALL3.1 cells, the 3H-thymidine incorporation result is listed as “stop incorporating ^3H-thymidine” and the cell cycle profile entry is “G1 phase arrest”. The “Cdc7 kinase activity on Mcm2” value on human recombinant Cdc7 is recorded as “small molecule inhibitor of Cdc7 kinase activity”. Also, the “Mcm2 phosphorylation in cells” value with Mcm2 phosphorylation was “inhibition of Mcm2 phosphorylation”. The “double strand DNA breaks” value in the data set on HeLa cells (HeLa cells) is listed as “increased double strand DNA breaks”. Also, the Mcm2 mobility entry in the data set with HeLa cells (SDS-PAGE and western blot) is given as “shifted”. Further, the “S phase checkpoint activation” value with HeLa cells (western blot, Chk1 Ser345) was “does not activate the S phase checkpoint”.

With `CC1OC2CC(O[C@H]3CC[C@H](O)[C@H](C)O3)C1(O)c1c(O)c3c(c(O)c12)C(=O)C1=C(C3=O)[C@H](C)O[C@H]2CC(=O)O[C@@H]12` (stereo partly drawn) [Granaticin B, granaticin B], in data set [2] (against all the samples tested), the “activity relative to granaticin A” value is reported as “approximately one log”. Also, in data set [2] (all the samples tested), the “range of inhibition of cellular proliferation” value was “low nanomolar range”. For the same compound, the “efficacy in mouse model of non-small cell lung cancer” value in the data set with A459 cells is “efficacious”. The solubility is greater than 188 mg/mL in data set [3] (organic solvent or mixture, in alcohol); greater than 252 mg/mL in [3] (organic solvent or mixture, in methanol); 4 mg/mL (≈ 7.16 mM) in data set [3] (water, in aqueous solution). Also, in the data set with OVCAR3 cells, the “disease by luciferase imaging” value was “essentially no disease”.
